System: circulating TNFα
Test: Circulating TNFα versus time post inflammatory trigger (FIG. 17)
Type: in vivo
Conditions: systemic inflammatory event; equal doses
From the text: FIG. 17 includes a graph illustrating the relative percentage of circulating TNFα versus time post inflammatory trigger for a control, CBD and packaged CBD application.

## C=C(C)[C@@H]1CCC(C)=C[C@H]1c1c(O)cc(CCCCC)cc1O [CBD, Cannabidiol]
  effect on relative concentration of circulating TNFα: able to quell a systemic inflammatory event
